Ends that are not written are not given here.
Tests used:
[1] = Solubility of synthesized peptide; type: physicochemical; conditions: used in PBS and RPMI 1640
Procedure: A hydrophilic 9 mer peptide of the sequence […] (SEQ ID NO:3) which corresponds to the region of shared homology of Hsp47 with HLA-A2 was synthesized by the Stanford PAN facility on a BioApplied® peptide synthesizer, HPLC purified and verified by amino acid sequencing. Pure peptide was lyophilized and stored at −20° C.

OCI-Ly8 tumor cell = experiment: ^51Cr release CIK cytotoxicity assay, tumor targets; type: cell-based, human; conditions: peptide 10 μM, E:T 20:1
Procedure: (§1) Target cells were metabolically labelled with ^51Cr (Dupont—New England Nuclear, Boston, Mass.) by incubating 1×10^6 cells in […] ^51Cr at 37° C. for 1-1.5 hours. The labelled cells were washed three times with phosphate buffered saline (PBS) containing 0.1% bovine serum albumin. The labelled cells were distributed in flat-bottomed 96 well microtiter plates at a concentration of 2×10^4 cells/well in triplicate. Effector (CIK) cells were added at the indicated ratios. Mabs were added prior to the addition of effector cells, and incubated for 15-30 minutes at room temperature. The final volume of the assay mixture in each well was 0.2 ml. After 4 hours at 37° C., the cells were collected by centrifugation and an aliquot of the supernatant was counted in a gamma counter (Micromedic Systems, Horsham, Pa.). The percentage of specific ^51Cr release was calculated according to the following equation: […]
Spontaneous release was obtained by incubating the labelled cells in complete medium alone and maximal release by treatment of the cells with 1% NP-40. […]

HUVEC = experiment: ^51Cr release CIK cytotoxicity assay, endothelial cell targets pre-treated with BFA, protein or peptide; type: cell-based, human
Procedure: as §1
Spontaneous release was obtained by incubating the labelled cells in complete medium alone and maximal release by treatment of the cells with 1% NP-40.
For brefeldin A (BFA) treatment, freshly confluent HUVEC monolayers, nonadherent target cells or CIK cells at 0.5-2×10^6 cells per ml were incubated with medium supplemented with 0.5-10 μg of brefeldin A (B6hringer Mannheim GmbH, Mannheim, Germany) per ml medium and incubated for 2-6 hours in a humidified incubator with 5% carbon dioxide at 37° C. BFA was dissolved at 100 μg per ml in 70% ethanol and used fresh or stored up to 4 weeks at −20° C. Prior to cytotoxicity assay the cells were rinsed three times with PBS, and fresh medium not containing BFA was added for the remainder of the assay (FIG. 4).
Both HUVEC and OCI-Ly8 cells were incubated with BFA at concentrations of 0, 2.5, 5, 7.5 and 10 μM for 6 hours as described above, washed, labeled with ^51Cr and used in a cytotoxicity assay with d21 CIK cells at an E:T ratio of 20:1. Preincubation of EC targets with 2.5 μM BFA reduced CIK mediated cytotoxicity by 40%.
Subsequent to ^51Cr labeling but prior to addition of effector cells 10-200 μg FPLC purified Hsp47 (Example 7) protein or 10 nM to 10 μM HPLC purified peptide […] (SEQ ID NO:3) (Example 8), both in sterile PBS at pH 7.4 and diluted to the final concentration with RPMI, were added to targets per ml of medium and incubated for 30 minutes at 37° C. in a humidified atmosphere of 5% CO2. In assays using purified protein, targets were subjected to three subsequent washes with 10 volumes of Ca^2+, Mg^2+ and 5% FCS containing PBS prior to providing fresh standard culture medium to the target cells. In assays using purified peptide, the added peptide was present for the entire assay. The remainder of the assay was performed as detailed above, at 37° C. in a humidified atmosphere of 5% CO2.

Balb/c mice = experiment: Murine GvHD model, bone marrow transplant; type: in vivo, mouse; conditions: for protection from GvHD: 300 μg Hsp47-Gst protein with graft cells, single injection day 0, monitored 4 weeks, 5 animals
Procedure: Male Balb/c mice were twice irradiated with 500 Rads prior to transplantation. Bone marrow (BM) and spleen derived stem cells were obtained from B10D2 (H-2^d background) mice. 2.5×10^6 BM and 1×10^6 spleen cells were pooled as a graft source for each recipient male Balb/c animal. This non-enriched stem cell population of cells were either suspended in RPMI containing 300 μg Hsp47-Gst protein in 300 μl total volume, or, in buffer containing 100 μg of Gst control protein alone. Cells and protein were given in a single injection on day 0. No other immunosuppressive treatments were given. Animals were monitored for 4 weeks after the bone marrow transplant.

granzyme A = target: T1, granzyme A (Homo sapiens, UniProt P12544); experiment: BLT esterase or SDS-PAGE gelshift assays with granzymes; type: biochemical; conditions: data not shown
T1 sequence (P12544 29-262): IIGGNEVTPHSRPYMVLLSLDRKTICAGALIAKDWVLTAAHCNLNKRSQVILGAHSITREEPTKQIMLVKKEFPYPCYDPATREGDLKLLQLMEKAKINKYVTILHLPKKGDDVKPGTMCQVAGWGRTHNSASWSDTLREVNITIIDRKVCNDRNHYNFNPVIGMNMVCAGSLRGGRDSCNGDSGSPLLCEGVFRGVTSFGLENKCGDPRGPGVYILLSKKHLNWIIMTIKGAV
From the text: By sequence homology, Hsp47 is a serine protease inhibitor with theoretical specificity for lysine at the active site of incoming serine proteases. Serpins act as “bait” representing cleavable substrates which form a stable instead of a transitory covalent bond with the active center of serine proteases. […] Thus, serpins inactivate serine proteases in a stoichiometric ratio of 1:1. Despite the sequence relationship, no substrate serine protease has so far been identified for Hsp47. Some authors expect the serpin-domain to be nonfunctional because its “active site” amino acids are modified (Hirayoshi et al., Mol Cell Biol 11:4036-4044 (1991)). […] In ^51Cr-release assays, deletion of the serpin domain led to loss of function of the affected truncation mutants. However, as further deletions of the gene re-established full function to the smaller truncated Hsp47 mutants, expressing then little more than the H1,A-A2-consensus region discussed below, we assume that the loss of function of the C-terminal truncation of Hsp47's serpin domain causes a conformational change in the protein which normalizes with further truncation. […]

mature d21 CIK = experiment: FACS analysis of mature d21 CIK with eGFP-tagged huHsp47 probe; type: binding, human; conditions: 10 μg eGFP-huHsp47 per ml, PE-CD56 co-staining
Procedure: For Fluorescence Activated Cell Sorting (FACS) 10^6 effector or target cells were washed twice with Ca^2+, Mg^2+ and 5% FCS containing PBS buffer, suspended in 50 μl of this buffer and placed at 0-4° C. in the dark. 1 μg of FITC-, PE-, Per-CP or TriColor labelled monoclonal antibody (Beckton Dickinson, San Jose, Calif.) per staining reaction of 10^6 cells was mixed with the cells and incubated for 15 to 30 minutes at 0-4° C. in the dark. Stained cells were subjected to three subsequent washes with 10 volumes of Ca^2+, Mg^2+ and 5% FCS containing PBS and taken up in 500 μl of this buffer for analysis or sort by FACScan/FACStar (Beckton Dickinson, San Jose, Calif.) with excitation at 488 nm and the appropriate channel filters for detection of emission.
The huHsp47δRDEL-enhanced green fluorescent protein (eGFP) fusion protein, expressed under the control of the CMV IE promoter, was isolated as described above and used as a FACS probe to search for huHsp47 cell surface binding proteins. […]
eGFP-tagged Hsp47 FACS probe was generated through additional genetic engineering (FIG. 8A) (SEQ ID NOS: 15-18). […] FACS analysis of mature d21 CIK with eGFP-tagged HuHsp47 as FACS probe for the FITC channel, with CE56-PE co-staining, is based on differences in the Hsp47 binding ability of the analyzed CIK. […]

major serine proteases = conditions: Davids et al. 1995; cited from earlier work

For AVLSAEQLR, the “solubility in aqueous solution” value [1] was “soluble in aqueous solution” and the “reduction of specific target lysis, CIK-OCI-Ly8 tumor cell ^51Cr cytotoxicity assay” value (OCI-Ly8 tumor cell) was “less than 10%”.

With “huHsp47-GST protein: fusion protein of human Hsp47 and N-terminally tagged glutathione-S-transferase, expressed in bacteria” the “reduction of EC lysis” value (HUVEC; 1 μM huHsp47-GST protein) was 50%, the “protection of EC by purified recombinant protein” value (HUVEC; dose response) was “protects EC in a dose responsive fashion” and the “protection of EC from CIK mediated lysis” value (HUVEC; pre-incubation with 10 μM huHsp47-GST protein) was “completely protects”. For the same molecule, the “protection from GvHD” value (Balb/c mice) was “none developed graft vs. host disease”, the “protection from GvHD” value (Balb/c mice; listed as Hsp-Gst protein) was “protected from the onset of GvHD, fur ruffling, weight loss and death” and the opportunistic infection (Balb/c mice; full body irradiated mice, BMT, over the time period tested) was “none developed opportunistic infection”. The “irreversible inhibition of granzymes” value (granzyme A) was “not able to demonstrate a function of Hsp47 as an irreversible inhibitor”.

B1: eGFP-huHsp47: huHsp47δRDEL-enhanced green fluorescent protein fusion protein used as FACS probe (protein)
chain: AEVKKPVEAAAPGTAEKLSSKATTLAEPSTGLAFSLYQAMAKDQAVENILVSPVVVASSLGLVSLGGKATTASQAKAVLSAEQLRDEEVHAGLGELLRSLSNSTARNVTWKLGSRLYGPSSVSFADDFVASSKQHYNCEHSKINFPDKRSALQSINEWAAQTTDGKLPEVTKDVESTDGALLVNAMFFKPHWDEKFHHKMVDNRGFMVTRSYTVGVTMMHRTGLYNYYDDEKEKLQLVEMPLAHKLSSLIILMPHHVEPLERLEKLLTKEQLKIWMGKMQKKAVAISLPKGVVEVTHDLQKHLAGLGLTEAIDKNKADLSRMSGKKDLYLASVFHATAFELDTDGNPFDQDIYGREELRSPKLFYADHPFIFLVRDTQSGSLLFIGRLVRLKGDKM
modifications: left off: large carriers
notes: huHsp47δRDEL-enhanced green fluorescent protein fusion protein used as FACS probe
For B1, the “CIK cells stained by eGFP-tagged Hsp47 probe” value (mature d21 CIK) was 26%.

B2: murine Hsp47: purified murine Hsp47 from cited work (protein, UniProt P19324 18-417, looked up)
Serpin H1: AEVKKPLEAAAPGTAEKLSSKATTLAERSTGLAFSLYQAMAKDQAVENILLSPLVVASSLGLVSLGGKATTASQAKAVLSAEKLRDEEVHTGLGELLRSLSNSTARNVTWKLGSRLYGPSSVSFADDFVRSSKQHYNCEHSKINFRDKRSALQSINEWASQTTDGKLPEVTKDVERTDGALLVNAMFFKPHWDEKFHHKMVDNRGFMVTRSYTVGVTMMHRTGLYNYYDDEKEKLQMVEMPLAHKLSSLIILMPHHVEPLERLEKLLTKEQLKAWMGKMQKKAVAISLPKGVVEVTHDLQKHLAGLGLTEAIDKNKADLSRMSGKKDLYLASVFHATAFEWDTEGNPFDQDIYGREELRSPKLFYADHPFIFLVRDNQSGSLLFIGRLVRPKGDKMRDEL
For B2, the “inhibition of major serine proteases” value (major serine proteases) is given as “failed to inhibit”.

— patent US20080241194A1, “COMPOSITIONS AND METHODS FOR PROTECTING ORGANS, TISSUE AND CELLS FROM IMMUNE SYSTEM-MEDIATED DAMAGE” (THE BOARD OF TRUSTEES OF THE LELAND STANFORD JUNIOR …, priority 1998, published 2008)
